Values quoted from earlier work as cited in paper PMC9001717, “Tyrosine 121 moves revealing a ligandable pocket that couples catalysis to ATP-binding in serine racemase” (Communications Biology, 2022).

Test system: SR
Design: method as in supplementary refs 2, 11-32
Conditions: literature summary; ref supplementary refs 2, 11-32; cited from earlier work

| Molecule | Inhibition mode |
| --- | --- |
| O=C(O)C1CC1C(=O)O (stereo not drawn) [1,2-cyclopropanedicarboxylic acid] | Competitive |
| O=C(O)C(CO)(CO)C(=O)O [2,2-bis(hydroxymethyl)malonate] | Competitive |
| O=C(O)C(Cl)(Cl)C(=O)O [2,2-dichloromalonate] | Competitive |
| NC(C(=O)O)C(=O)O [2-aminomalonate] | Competitive |
| O=C(O)C(F)C(=O)O [2-fluoromalonate] | Competitive |
| O=C(O)C(O)C(=O)O [2-hydroxymalonate] | Competitive |
| O=C(O)/C(O)=C(\O)C(=O)O [Dihydroxyfumaric] | Competitive |
| NC(CCS(=O)(=O)O)C(=O)O (stereo not drawn) [Homocysteic acid] | Competitive |
| NC(=O)C[C@H](N)C(=O)O [L-asparagine] | Competitive |
| N[C@@H](CC(=O)O)C(=O)O [L-aspartate] | Competitive |
| N[C@@H](CSS(=O)(=O)O)C(=O)O [L-cysteine-S-sulfate] | Competitive |
| O=C(O)C[C@H](O)C(=O)O [L-malic] | Competitive |
| N[C@@H](COS(=O)(=O)O)C(=O)O [L-serine-O-sulfate] | Competitive |
| O=C(O)/C=C\C(=O)O [Maleic] | Competitive |
| O=C(O)CC(=O)C(=O)O [Oxaloacetic acid] | Product inhibition |
| O=C(O)CCC(=O)O [Succinic] | Competitive |
| O=C(O)C(O)C(O)C(=O)O (stereo not drawn) [Tartaric] | Competitive |
| NC(CO)(CO)C(=O)O [α-(hydroxymethyl)serine] | Substrate-product inhibition |
| N[C@@H](CCl)C(=O)O [β-chloro-L-alanine] | Competitive |
| phosphatidylinositol 4,5-bisphosphate [PIP2] | Inhibition (noncompetitive) |
| GRIP: glutamate receptor-interacting protein (protein, UniProt Q9Y3R0 1-1128, looked up) Glutamate …: MIAVSFKCRCQILRRLTKDESPYTKSASQTKPPDGALAVRRQSIPEEFKGSTVVELMKKEGTTLGLTVSGGIDKDGKPRVSNLRQGGIAARSDQLDVGDYIKAVNGINLAKFRHDEIISLLKNVGERVVLEVEYELPPVSVQGSSVIFRTVEVTLHKEGNTFGFVIRGGAHDDRNKSRPVVITCVRPGGPADREGTIKPGDRLLSVDGIRLLGTTHAEAMSILKQCGQEAALLIEYDVSVMDSVATASGPLLVEVAKTPGASLGVALTTSMCCNKQVIVIDKIKSASIADRCGALHVGDHILSIDGTSMEYCTLAEATQFLANTTDQVKLEILPHHQTRLALKGPDHVKIQRSDRQLTWDSWASNHSSLHTNHHYNTYHPDHCRVPALTFPKAPPPNSPPALVSSSFSPTSMSAYSLSSLNMGTLPRSLYSTSPRGTMMRRRLKKKDFKSSLSLASSTVGLAGQVVHTETTEVVLTADPVTGFGIQLQGSVFATETLSSPPLISYIEADSPAERCGVLQIGDRVMAINGIPTEDSTFEEASQLLRDSSITSKVTLEIEFDVAESVIPSSGTFHVKLPKKHNVELGITISSPSSRKPGDPLVISDIKKGSVAHRTGTLELGDKLLAIDNIRLDNCSMEDAVQILQQCEDLVKLKIRKDEDNSDEQESSGAIIYTVELKRYGGPLGITISGTEEPFDPIIISSLTKGGLAERTGAIHIGDRILAINSSSLKGKPLSEAIHLLQMAGETVTLKIKKQTDAQSASSPKKFPISSHLSDLGDVEEDSSPAQKPGKLSDMYPSTVPSVDSAVDSWDGSAIDTSYGTQGTSFQASGYNFNTYDWRSPKQRGSLSPVTKPRSQTYPDVGLSYEDWDRSTASGFAGAADSAETEQEENFWSQALEDLETCGQSGILRELEEKADRRVSLRNMTLLATIMSGSTMSLNHEAPTPRSQLGRQASFQERSSSRPHYSQTTRSNTLPSDVGRKSVTLRKMKQEIKEIMSPTPVELHKVTLYKDSDMEDFGFSVADGLLEKGVYVKNIRPAGPGDLGGLKPYDRLLQVNHVRTRDFDCCLVVPLIAESGNKLDLVISRNPLASQKSIDQQSLPGDWSEQNSAFFQQPSHGGNLETREPTNTL | Activation; binds to SR |
| Golga3: Golgin subfamily A member 3 (protein, UniProt Q08378 1-1498, looked up) Golgin subfamily A member 3: MDGASAEQDGLQEDRSHSGPSSLPEAPLKPPGPLVPPDQQDKVQCAEVNRASTEGESPDGPGQGGLCQNGPTPPFPDPPSSLDPTTSPVGPDASPGVAGFHDNLRKSQGTSAEGSVRKEALQSLRLSLPMQETQLCSTDSPLPLEKEEQVRLQARKWLEEQLKQYRVKRQQERSSQPATKTRLFSTLDPELMLNPENLPRASTLAMTKEYSFLRTSVPRGPKVGSLGLPAHPREKKTSKSSKIRSLADYRTEDSNAGNSGGNVPAPDSTKGSLKQNRSSAASVVSEISLSPDTDDRLENTSLAGDSVSEVDGNDSDSSSYSSASTRGTYGILSKTVGTQDTPYMVNGQEIPADTLGQFPSIKDVLQAAAAEHQDQGQEVNGEVRSRRDSICSSVSLESSAAETQEEMLQVLKEKMRLEGQLEALSLEASQALKEKAELQAQLAALSTKLQAQVECSHSSQQRQDSLSSEVDTLKQSCWDLERAMTDLQNMLEAKNASLASSNNDLQVAEEQYQRLMAKVEDMQRSMLSKDNTVHDLRQQMTALQSQLQQVQLERTTLTSKLKASQAEISSLQSVRQWYQQQLALAQEARVRLQGEMAHIQVGQMTQAGLLEHLKLENVSLSQQLTETQHRSMKEKGRIAAQLQGIEADMLDQEAAFMQIQEAKTMVEEDLQRRLEEFEGERERLQRMADSAASLEQQLEQVKLTLLQRDQQLEALQQEHLDLMKQLTLTQEALQSREQSLDALQTHYDELQARLGELQGEAASREDTICLLQNEKIILEAALQAAKSGKEELDRGARRLEEGTEETSETLEKLREELAIKSGQVEHLQQETAALKKQMQKIKEQFLQQKVMVEAYRRDATSKDQLISELKATRKRLDSELKELRQELMQVHGEKRTAEAELSRLHREVAQVRQHMADLEGHLQSAQKERDEMETHLQSLQFDKEQMVAVTEANEALKKQIEELQQEARKAITEQKQKMRRLGSDLTSAQKEMKTKHKAYENAVGILSRRLQEALAAKEAADAELGQLRAQGGSSDSSLALHERIQALEAELQAVSHSKTLLEKELQEVIALTSQELEESREKVLELEDELQESRGFRKKIKRLEESNKKLALELEHEKGKLTGLGQSNAALREHNSILETALAKREADLVQLNLQVQAVLQRKEEEDRQMKHLVQALQASLEKEKEKVNSLKEQVAAAKVEAGHNRRHFKAASLELSEVKKELQAKEHLVQKLQAEADDLQIREGKHSQEIAQFQAELAEARAQLQLLQKQLDEQLSKQPVGNQEMENLKWEVDQKEREIQSLKQQLDLTEQQGRKELEGLQQLLQNVKSELEMAQEDLSMTQKDKFMLQAKVSELKNNMKTLLQQNQQLKLDLRRGAAKTRKEPKGEASSSNPATPIKIPDCPVPASLLEELLRPPPAVSKEPLKNLNSCLQQLKQEMDSLQRQMEEHALTVHESLSSWTPLEPATASPVPPGGHAGPRGDPQRHSQSRASKEGPGE | Increases SR levels |
| PICK1: protein interacting with C-kinase (protein, UniProt Q9NRD5 1-415, looked up) PRKCA-binding protein: MFADLDYDIEEDKLGIPTVPGKVTLQKDAQNLIGISIGGGAQYCPCLYIVQVFDNTPAALDGTVAAGDEITGVNGRSIKGKTKVEVAKMIQEVKGEVTIHYNKLQADPKQGMSLDIVLKKVKHRLVENMSSGTADALGLSRAILCNDGLVKRLEELERTAELYKGMTEHTKNLLRAFYELSQTHRAFGDVFSVIGVREPQPAASEAFVKFADAHRSIEKFGIRLLKTIKPMLTDLNTYLNKAIPDTRLTIKKYLDVKFEYLSYCLKVKEMDDEEYSCIALGEPLYRVSTGNYEYRLILRCRQEARARFSQMRKDVLEKMELLDQKHVQDIVFQLQRLVSTMSKYYNDCYAVLRDADVFPIEVDLAHTTLAYGLNQEEFTDGEEEEEEEDTAAGEPSRDTRGAAGPLDKGGSWCDS | Inhibition; binds to SR |
| DISC1: Disrupted-In-Schizophrenia-1 (protein, UniProt Q9NRI5 1-854, looked up) Disrupted in schizophrenia 1 …: MPGGGPQGAPAAAGGGGVSHRAGSRDCLPPAACFRRRRLARRPGYMRSSTGPGIGFLSPAVGTLFRFPGGVSGEESHHSESRARQCGLDSRGLLVRSPVSKSAAAPTVTSVRGTSAHFGIQLRGGTRLPDRLSWPCGPGSAGWQQEFAAMDSSETLDASWEAACSDGARRVRAAGSLPSAELSSNSCSPGCGPEVPPTPPGSHSAFTSSFSFIRLSLGSAGERGEAEGCPPSREAESHCQSPQEMGAKAASLDGPHEDPRCLSRPFSLLATRVSADLAQAARNSSRPERDMHSLPDMDPGSSSSLDPSLAGCGGDGSSGSGDAHSWDTLLRKWEPVLRDCLLRNRRQMEVISLRLKLQKLQEDAVENDDYDKAETLQQRLEDLEQEKISLHFQLPSRQPALSSFLGHLAAQVQAALRRGATQQASGDDTHTPLRMEPRLLEPTAQDSLHVSITRRDWLLQEKQQLQKEIEALQARMFVLEAKDQQLRREIEEQEQQLQWQGCDLTPLVGQLSLGQLQEVSKALQDTLASAGQIPFHAEPPETIRSLQERIKSLNLSLKEITTKVCMSEKFCSTLRKKVNDIETQLPALLEAKMHAISGNHFWTAKDLTEEIRSLTSEREGLEGLLSKLLVLSSRNVKKLGSVKEDYNRLRREVEHQETAYETSVKENTMKYMETLKNKLCSCKCPLLGKVWEADLEACRLLIQSLQLQEARGSLSVEDERQMDDLEGAAPPIPPRLHSEDKRKTPLKVLEEWKTHLIPSLHCAGGEQKEESYILSAELGEKCEDIGKKLLYLEDQLHTAIHSHDEDLIQSLRRELQMVKETLQAMILQLQPAKEAGEREAAASCMTAGVHEAQA | Stabilises SR |
